In patent US11078194B2, “Salt form and crystal form serving as FGFR and VEGFR inhibitor compounds, and preparation method therefor” (HARBIN ZHENBAO PHARMACEUTICAL CO., LTD., priority 2017, dated 2021):
Like-named read-outs stand apart in the source and are kept apart here.

Tests used:
[1] = Solubility test of compounds of formula (I)-(IV) in 4 vehicles (water, SGF, FaSSIF, FeSSIF), HPLC; assay type: physicochemical; settings: for Solubility (μg/mL)_4 hours / solubility at 4 h: 4 hours stirring; for Solubility (μg/mL)_24 hours / solubility at 24 h: 24 hours stirring; for solubility at 24 h / solubility at 4 h: thermodynamic from solid; for solubility at 24 h: read-out: Solubility (μg/mL)_24 hours; for solubility at 4 h: read-out: Solubility (μg/mL)_4 hours
Protocol: About 5 mg of the compound of formula (I) was weighed accurately, and placed in a sample bottle. 10 mL of acetonitrile was added. The mixture was sonicated for 5 minutes, cooled to room temperature, and well mixed. Two control sample solutions were prepared in parallel, and labeled as STD-1 and STD-2, respectively.
The control sample solution STD-1 was serially diluted 1, 5, 10, 100 and 1000 times and labeled as linear solutions L1, L2, L3, L4 and L5.
The solubility of the compound of formula (I) and its salt in 4 vehicles with different pH were tested. About 10 mg of the compounds of formula (I)-(IV) were weighed respectively, then 5.0 mL of different vehicles (water, SGF, FaSSIF, FeSSIF) were added thereto, respectively, and well mixed to obtain suspensions. Magnetic stir bars were added into the suspensions, and the suspensions were placed on a magnetic stirrer for stirring. After stirring for 2 hours, 4 hours, and 24 hours, the samples were collected and centrifuged. The residual solid samples in the lower layer were detected by XRPD. The concentrations of the samples in the upper layer were determined by HPLC, and the pH value of the samples were also detected.
(§1) FaSSIF: (1) 0.042 g of sodium hydroxide, 0.3438 g of sodium dihydrogen phosphate and 0.6186 g of sodium chloride were weighed, and 90 mL of purified water was added and well mixed. The pH value of the obtained solution were adjusted to 6.5 with 1 N hydrochloric acid or 1 N sodium hydroxide, and the solution were diluted with purified water to a final volume of 100 mL. (2) 50 mL of the above buffer solution was taken, followed by addition of 0.224 g of commercially available FaSSIF/FeSSIF/FaSSGF powder (Biorelevant.com). The buffer solution was stirred until dissolved, and diluted with purified water to a final volume of 100 mL. The buffer solution was placed at room temperature.
as §1, with “FeSSIF:” for “FaSSIF:”, “0.404” for “0.042”, “0.865” for “0.3438”, “glacial acetic acid, 1.1874” for “sodium dihydrogen phosphate and 0.6186”, “5.0” for “6.5”, “1.12” for “0.224”
FaSSGF (SGF): (1) 0.2 g of sodium chloride was added to 90 mL of purified water and mixed well. The pH value thereof was adjusted to 1.8 with 1 N hydrochloric acid and the solution diluted with purified water to a final volume of 100 mL. The obtained solution was allowed to stand at room temperature.

[2] = Solid stability test of crystal form G, crystal form I and crystal form J (HPLC content, total impurities, XRPD, appearance); assay type: physicochemical
Protocol: About 10 mg of crystal form G, crystal form I, or crystal form J were weighed accurately, and placed on the bottom of a 40 mL glass sample bottle and spread into a thin layer. For an open sample, the bottle mouth thereof was sealed with aluminum foil poked with pinholes to ensure that the sample can fully contact with the ambient air. For a sealed sample, the bottle mouth thereof was sealed with a bottle cap, and wrapped with a sealing film. Two duplicate samples were weighed at each time point of each condition in parallel, and an appropriate amount of sample (not weighed) was taken additionally for XRPD detection. The prepared samples were placed under each condition and were sampled and analyzed when the time point was arrived. On 0th day, 5 control samples were weighed in parallel and stored in a refrigerator at −20° C. until analysis. The samples subjected to light irradiation were prepared by the same method, and placed on the bottom of a 40 mL glass sample bottle. The glass bottle was left open and placed in the upright position in a light irradiation box. In addition, two samples in an appropriate amount were taken as samples in dark, and the glass bottles containing the same were left open, put in the upright position, and wrapped with tin foil, and irradiated with a total luminance of 1.2×10^6Lux.hr and a near ultraviolet power of 200 w.hr/m^2. After irradiation, the samples was stored in the refrigerator at −20° C. for analysis.
The compounds were placed under the following conditions and sampled at different time points to detect the physical properties, and the content and total impurities were analyzed by HPLC.

[3] = pH of sample in FaSSIF (vehicle pH 6.62)
[4] = pH of sample in FeSSIF (vehicle pH 4.59)
[5] = pH of sample in H2O (vehicle pH 8.23)
[6] = pH of sample in SGF (vehicle pH 1.57)
[7] = FeSSIF, pH 5, fessif, vehicle FeSSIF
[8] = Accelerated test (40° C./relative humidity 75%, open), 1st month
[9] = Accelerated test (40° C./relative humidity 75%, open), 2nd month
[10] = Accelerated test (40° C./relative humidity 75%, open), 3rd month
[11] = Accelerated test (40° C./relative humidity 75%, open), 10th day
[12] = Accelerated test (60° C./relative humidity 75%, open), 1st month
[13] = Accelerated test (60° C./relative humidity 75%, open), 2nd month
[14] = Accelerated test (60° C./relative humidity 75%, open), 3rd month
[15] = Accelerated test (60° C./relative humidity 75%, open), 10th day
[16] = High humidity (Room temperature/relative humidity 92.5%, open), 5th day
[17] = High humidity (Room temperature/relative humidity 92.5%, open), 10th day
[18] = High temperature (60° C., open), 5th day
[19] = High temperature (60° C., open), 10th day
[20] = Light irradiation (1.2 × 10^6 Lux·hr, near ultraviolet 200 w·hr/m^2, open), irradiated sample
[21] = Light irradiation test, Dark sample

## C[C@@H](Oc1ccc2[nH]nc(/C=C(\F)c3ccc(CNC4CCOCC4)nc3)c2c1)c1c(Cl)cncc1Cl [compound of formula (II)]
[1]; [3]
  pH (4 hours): 6.25
  pH (24 hours): 6.22
[1]; [4]
  pH (4 hours): 4.90
  pH (24 hours): 4.91
[1]; [5]
  pH (4 hours): 2.68
  pH (24 hours): 2.68
[1]; [6]
  pH (4 hours): 1.86
  pH (24 hours): 1.86
[1]; vehicle FaSSIF
  Solubility (μg/mL)_4 hours: 949.7 µg/mL
  Solubility (μg/mL)_24 hours: 281.6 µg/mL
[1]; vehicle FeSSIF
  Solubility (μg/mL)_4 hours: 2010.0 µg/mL
  Solubility (μg/mL)_24 hours: 1831.5 µg/mL
[1]; vehicle H2O
  Solubility (μg/mL)_4 hours: 1576.9 µg/mL
[1]; vehicle SGF
  Solubility (μg/mL)_4 hours: 106.3 µg/mL
  Solubility (μg/mL)_24 hours: 45.4 µg/mL
[1]; water, pH 8.23, water, vehicle H2O
  solubility at 24 h: 1540 µg/mL
[1]; water, conclusion in words, listed as hydrochloride
  solubility in the aqueous phase / water: highest solubility

## C[C@@H](Oc1ccc2[nH]nc(/C=C(\F)c3ccc(CNC4CCOCC4)nc3)c2c1)c1c(Cl)cncc1Cl [compound of formula (I)]
[1]; FaSSIF, pH 6.5, fassif, vehicle FaSSIF
  solubility at 4 h: 781 µg/mL
[1]; [7]
  solubility at 4 h: 1950 µg/mL
  solubility at 24 h: 1730 µg/mL
[1]; SGF, FaSSIF, FeSSIF, conclusion in words
  solubility in the three biological vehicle: good solubility
[1]; [3]
  pH (4 hours): 6.58
  pH (24 hours): 6.57
[1]; [4]
  pH (4 hours): 5.01
  pH (24 hours): 5.01
[1]; [5]
  pH (4 hours): 8.33
  pH (24 hours): 7.97
[1]; [6]
  pH (4 hours): 2.10
  pH (24 hours): 2.06
[1]; vehicle FaSSIF
  Solubility (μg/mL)_24 hours: 611.3 µg/mL
[1]; vehicle H2O
  Solubility (μg/mL)_4 hours: 5.8 µg/mL
  Solubility (μg/mL)_24 hours: <LOQ
[1]; vehicle SGF
  Solubility (μg/mL)_4 hours: 1971.3 µg/mL
  Solubility (μg/mL)_24 hours: 1825.6 µg/mL
[1]; water, conclusion in words, listed as free base
  solubility in the aqueous phase / water: extremely difficult to dissolve

## C[C@@H](Oc1ccc2[nH]nc(/C=C(\F)c3ccc(CNC4CCOCC4)nc3)c2c1)c1c(Cl)cncc1Cl [crystal form G]
[2]; 0th day
  Appearance: Earth yellow
  Content (%): 100%
  Crystal form (XRPD): form G
  Total impurities (%): 0.11%
[2]; [8]
  Appearance: Earth yellow
  Content (%): 102.45%
  Crystal form (XRPD): form G
  Total impurities (%): 0.16%
[2]; [9]
  Appearance: Earth yellow
  Content (%): 101.07%
  Crystal form (XRPD): form G
  Total impurities (%): 0.17%
[2]; [10]
  Appearance: Earth yellow
  Content (%): 98.81%
  Crystal form (XRPD): form G
  Total impurities (%): 0.18%
[2]; [11]
  Appearance: Earth yellow
  Content (%): 99.97%
  Crystal form (XRPD): form G
  Total impurities (%): 0.11%
[2]; [12]
  Appearance: Earth yellow
  Content (%): 101.51%
  Crystal form (XRPD): form G
  Total impurities (%): 0.17%
[2]; [13]
  Appearance: Earth yellow
  Content (%): 99.86%
  Crystal form (XRPD): form G
  Total impurities (%): 0.18%
[2]; [14]
  Appearance: Earth yellow
  Content (%): 100.21%
  Crystal form (XRPD): form G
  Total impurities (%): 0.19%
[2]; [15]
  Appearance: Earth yellow
  Content (%): 98.38%
  Crystal form (XRPD): form G
  Total impurities (%): 0.15%
[2]; [16]
  Appearance: Earth yellow
  Content (%): 100.82%
  Crystal form (XRPD): form G
  Total impurities (%): 0.11%
[2]; [17]
  Appearance: Earth yellow
  Content (%): 98.79%
  Crystal form (XRPD): form G
  Total impurities (%): 0.11%
[2]; [18]
  Appearance: Earth yellow
  Content (%): 102.02%
  Crystal form (XRPD): form G
  Total impurities (%): 0.16%
[2]; [19]
  Appearance: Earth yellow
  Content (%): 100.14%
  Crystal form (XRPD): form G
  Total impurities (%): 0.16%
[2]; [20]
  Appearance: Earth yellow
  Content (%): 102.93%
  Crystal form (XRPD): form G
  Total impurities (%): 0.37%
[2]; [21]
  Appearance: Earth yellow
  Content (%): 101.69%
  Crystal form (XRPD): form G
  Total impurities (%): 0.11%
[2]; conclusion of influencing factors and accelerated tests
  thermal stability and stability under accelerated conditions: excellent
[2]; dark
  stability under dark conditions: good stability
[2]; light irradiation
  impurities generated under light irradiation conditions: slight impurities
